Measurements reported in the NIST ThermoML archive (doi:10.1021/je900515a).

What was measured:
[1] = Liquid, Pycnometric method
[2] = molar heat capacity at constant pressure; conditions: Liquid, Thermal relaxation method

C=C(F)C(F)(F)F [2,3,3,3-tetrafluoro-1-propene]
Conditions	mass density, [1] [kg/m3]	molar heat capacity at constant pressure, [2] [J/K/mol]
310 K, 1000 kPa	1046.5	–
310 K, 2000 kPa	1056.3	165.36
310 K, 3000 kPa	1065.2	161.94
310 K, 4000 kPa	1072.8	152.82
310 K, 5000 kPa	1080.6	153.96
320 K, 2000 kPa	1013.8	173.34
320 K, 3000 kPa	1025.1	167.64
320 K, 4000 kPa	1035.3	160.8
320 K, 5000 kPa	1044.8	157.38
330 K, 2000 kPa	964.2	185.89
330 K, 3000 kPa	979.2	179.05
330 K, 4000 kPa	992.7	168.78
330 K, 5000 kPa	1004.6	163.08
340 K, 2000 kPa	903	205.27
340 K, 3000 kPa	926.7	187.03
340 K, 4000 kPa	945.3	177.9
340 K, 5000 kPa	961.3	169.92
350 K, 3000 kPa	861.8	217.82
350 K, 4000 kPa	891.3	196.15
350 K, 5000 kPa	913.1	182.47
360 K, 3000 kPa	751.9	297.65
360 K, 4000 kPa	818.5	222.38
360 K, 5000 kPa	853.9	197.29
